Reference: ChEMBL document CHEMBL4689842, “EUbOPEN Chemogenomics Library wave 1” (2021)

How the values were obtained:
Type in all cases: toxicity, cell-based
U2OS = assay: Incucyte cell viability with U2OS; details: human, 10 µM, compound concentration 10 uM
Fibroblast = assay: Incucyte cell viability with human fibroblast; details: 10 µM, compound concentration 10 uM
HEK-293T = assay: Incucyte cell viability with HEK293T; details: human, 10 µM, compound concentration 10 uM
[1] = 6 h, replicate number 1, timepoint 6 hours
[2] = 6 h, replicate number 2, timepoint 6 hours
[3] = 12 h, replicate number 1, timepoint 12 hours
[4] = 12 h, replicate number 2, timepoint 12 hours
[5] = 18 h, replicate number 1, timepoint 18 hours
[6] = 24 h, replicate number 1, timepoint 24 hours
[7] = 24 h, replicate number 2, timepoint 24 hours
[8] = 0 h, replicate number 1, timepoint 0 hours
[9] = 18 h, replicate number 2, timepoint 18 hours
[10] = 0 h, replicate number 2, timepoint 0 hours

Measured: Growth Rate
Also: filed as whole numbers so only -1 and 0 and 1 occur.

Cc1cc(C(C)(C)C)c(O)c(C)c1CC1=NCCN1.Cl [OXYMETAZOLINE HYDROCHLORIDE]
1: U2OS; [2] | U2OS; [4] | U2OS; [7] | Fibroblast; [2] | Fibroblast; [3] | Fibroblast; [5] | Fibroblast; [6] | HEK-293T; [1] | HEK-293T; [3] | HEK-293T; [5] | HEK-293T; [6]
0: U2OS; [1] | U2OS; [3] | U2OS; [5] | U2OS; [6] | Fibroblast; [8] | Fibroblast; [7] | HEK-293T; [8] | HEK-293T; [2] | HEK-293T; [4] | HEK-293T; [9] | HEK-293T; [7]

COc1cc2ncnc(Nc3ccc(F)c(Cl)c3)c2cc1OCCCN1CCOCC1 [GEFITINIB]
1: U2OS; [4] | U2OS; [9] | U2OS; [7] | Fibroblast; [2]
0: U2OS; [8] | U2OS; [1] | U2OS; [3] | U2OS; [5] | U2OS; [6] | Fibroblast; [8] | Fibroblast; [3] | Fibroblast; [5] | Fibroblast; [6] | HEK-293T; [8] | HEK-293T; [1] | HEK-293T; [3] | HEK-293T; [5] | HEK-293T; [6]

CC(C)Oc1ccc(-c2c[nH]cc2CN(C)CCN)cc1
0: U2OS; [8] | U2OS; [1] | U2OS; [5] | U2OS; [6] | Fibroblast; [8] | Fibroblast; [2] | Fibroblast; [4] | Fibroblast; [9] | Fibroblast; [7] | HEK-293T; [8]
1: U2OS; [3] | U2OS; [9] | U2OS; [7] | Fibroblast; [5] | Fibroblast; [6] | HEK-293T; [10] | HEK-293T; [7]

Cc1csc(NC(=O)c2cc(F)cc(Oc3cncnc3)c2)n1
0: U2OS; [2] | U2OS; [3] | U2OS; [5] | U2OS; [6] | Fibroblast; [8] | Fibroblast; [1] | Fibroblast; [3] | Fibroblast; [9] | Fibroblast; [7] | HEK-293T; [8] | HEK-293T; [3] | HEK-293T; [9] | HEK-293T; [7]
1: U2OS; [1] | U2OS; [9] | U2OS; [7] | Fibroblast; [5] | Fibroblast; [6] | HEK-293T; [1] | HEK-293T; [4] | HEK-293T; [5] | HEK-293T; [6]

CN(C)C(=O)Cn1cc(-c2nc([C@@](C)(c3ccc(-c4cnc(N)nc4)cc3)C3CC3)no2)cn1 [BI 665915]
0: U2OS; [8] | U2OS; [1] | U2OS; [5] | U2OS; [7] | Fibroblast; [5] | Fibroblast; [6] | HEK-293T; [8] | HEK-293T; [1] | HEK-293T; [3] | HEK-293T; [5] | HEK-293T; [6]
1: U2OS; [2] | U2OS; [3] | U2OS; [6] | Fibroblast; [8] | Fibroblast; [1] | Fibroblast; [3] | Fibroblast; [9] | Fibroblast; [7] | HEK-293T; [10] | HEK-293T; [4] | HEK-293T; [9] | HEK-293T; [7]

COCCOc1nc(-c2ccc(Cl)nc2)nc2c1CN(C(=O)c1ncn3ccccc13)CC2 [THPP-1]
1: U2OS; [2] | U2OS; [3] | Fibroblast; [3] | Fibroblast; [5] | Fibroblast; [6] | HEK-293T; [10] | HEK-293T; [5] | HEK-293T; [6]
0: U2OS; [8] | U2OS; [1] | U2OS; [5] | U2OS; [6] | Fibroblast; [8] | Fibroblast; [1] | Fibroblast; [4] | Fibroblast; [9] | Fibroblast; [7] | HEK-293T; [8] | HEK-293T; [2] | HEK-293T; [4] | HEK-293T; [7]

O=C(N[C@@H](C1CC1)C(F)(F)F)c1cc(-c2cnn3cc(-c4ccc(F)cc4)cnc23)cs1
0: U2OS; [1] | U2OS; [3] | U2OS; [5] | U2OS; [7] | Fibroblast; [8] | HEK-293T; [8]
1: U2OS; [10] | U2OS; [6] | Fibroblast; [1] | Fibroblast; [3] | Fibroblast; [5] | Fibroblast; [6] | HEK-293T; [10] | HEK-293T; [2] | HEK-293T; [4] | HEK-293T; [7]

Cc1cnc(-c2cc(Cl)ccc2F)cc1-n1c(=O)n(CC(N)=O)c2ccccc21 [Al11]
0: U2OS; [8] | U2OS; [2] | U2OS; [4] | Fibroblast; [8] | Fibroblast; [5] | Fibroblast; [7] | HEK-293T; [8] | HEK-293T; [2]
1: U2OS; [1] | U2OS; [3] | U2OS; [5] | U2OS; [6] | Fibroblast; [1] | Fibroblast; [3] | Fibroblast; [6] | HEK-293T; [10] | HEK-293T; [4] | HEK-293T; [5] | HEK-293T; [6]

CN(C)C(=O)/C(C#N)=C/c1ccc(-c2nc3cnc4c(ccn4C)c3n2C2CCCCC2)o1
0: U2OS; [8] | U2OS; [1] | U2OS; [3] | U2OS; [5] | Fibroblast; [1] | Fibroblast; [3] | Fibroblast; [5] | Fibroblast; [6] | HEK-293T; [1] | HEK-293T; [3] | HEK-293T; [5] | HEK-293T; [6]
1: U2OS; [2] | U2OS; [4] | U2OS; [9] | U2OS; [6] | Fibroblast; [2]

C[C@H](NC(=O)c1cnc2n1[C@](C)(Cc1ccc(C#N)cc1)C(=O)N2c1cc(Cl)c(F)c(Cl)c1)C(=O)NC1(c2ccccn2)CC1 [BI 1950]
0: U2OS; [8] | Fibroblast; [8] | Fibroblast; [2] | Fibroblast; [4] | Fibroblast; [9] | Fibroblast; [7] | HEK-293T; [10] | HEK-293T; [1] | HEK-293T; [3] | HEK-293T; [5] | HEK-293T; [6]
1: U2OS; [2] | U2OS; [3] | U2OS; [5] | U2OS; [6] | Fibroblast; [10] | Fibroblast; [5] | Fibroblast; [6] | HEK-293T; [8]

Cc1noc([C@H]2C[C@@H](c3ccc(C(F)(F)F)cc3)CN(C(=O)N3CCS(=O)(=O)C3)C2)n1 [BAY-448]
1: U2OS; [2] | U2OS; [3] | U2OS; [9] | U2OS; [7] | Fibroblast; [1] | Fibroblast; [3] | Fibroblast; [7] | HEK-293T; [8] | HEK-293T; [2] | HEK-293T; [4]
0: U2OS; [8] | U2OS; [5] | U2OS; [6] | Fibroblast; [8] | Fibroblast; [2] | Fibroblast; [5] | Fibroblast; [6] | HEK-293T; [10] | HEK-293T; [1] | HEK-293T; [3] | HEK-293T; [5] | HEK-293T; [6]

COc1ccc(-c2ccc3cc(C(=O)O)ccc3c2)cc1C12CC3CC(CC(C3)C1)C2
0: U2OS; [8] | U2OS; [2] | U2OS; [4] | U2OS; [5] | U2OS; [6] | Fibroblast; [1] | Fibroblast; [3] | Fibroblast; [5] | Fibroblast; [6] | HEK-293T; [8] | HEK-293T; [2] | HEK-293T; [3] | HEK-293T; [5] | HEK-293T; [6]
1: U2OS; [3] | Fibroblast; [8] | Fibroblast; [9] | HEK-293T; [1] | HEK-293T; [9]

O[C@H]1CC[C@H](Nc2ncc3nc(Nc4c(F)cc(F)cc4F)n([C@H]4CCOC4)c3n2)CC1 [TANZISERTIB]
1: U2OS; [10] | Fibroblast; [3] | Fibroblast; [5] | Fibroblast; [6] | HEK-293T; [10]
0: U2OS; [8] | U2OS; [1] | U2OS; [3] | U2OS; [5] | U2OS; [6] | Fibroblast; [10] | Fibroblast; [1] | Fibroblast; [4] | HEK-293T; [8]

COC(=O)C(Cc1ccc(OCCn2c(=O)sc3cc(C(=O)c4ccccc4)ccc32)cc1)C(=O)OC
1: U2OS; [2] | U2OS; [3] | U2OS; [5] | U2OS; [6] | Fibroblast; [3] | Fibroblast; [5] | Fibroblast; [6] | HEK-293T; [8]
0: U2OS; [8] | Fibroblast; [8] | Fibroblast; [2] | Fibroblast; [4] | Fibroblast; [9] | HEK-293T; [10] | HEK-293T; [1] | HEK-293T; [3] | HEK-293T; [5] | HEK-293T; [6]

C[C@H](c1ccc(F)cc1)N(Cc1cccc(C(=O)O)c1)C(=O)c1cnc2ccccc2c1 [PF-05105679]
1: U2OS; [2] | U2OS; [4] | U2OS; [9] | U2OS; [7] | Fibroblast; [3] | Fibroblast; [5] | Fibroblast; [6] | HEK-293T; [8] | HEK-293T; [2] | HEK-293T; [3] | HEK-293T; [5] | HEK-293T; [6]
0: U2OS; [10] | U2OS; [1] | U2OS; [3] | U2OS; [5] | U2OS; [6] | Fibroblast; [8] | Fibroblast; [2] | HEK-293T; [10] | HEK-293T; [1] | HEK-293T; [4] | HEK-293T; [7]

CC1CCN(CC[C@H]2CCCN2S(=O)(=O)c2cccc(O)c2)CC1.Cl
1: U2OS; [2] | U2OS; [3] | U2OS; [5] | U2OS; [6] | Fibroblast; [1] | Fibroblast; [4] | Fibroblast; [5] | Fibroblast; [6] | HEK-293T; [1] | HEK-293T; [3] | HEK-293T; [5] | HEK-293T; [6]
0: U2OS; [8] | Fibroblast; [8] | HEK-293T; [8] | HEK-293T; [4]

O=C1CCc2cc(Nc3cc(OC4CCOCC4)c([N+](=O)[O-])cc3Cl)ccc2N1
0: U2OS; [8] | U2OS; [1] | U2OS; [3] | U2OS; [5] | U2OS; [6] | Fibroblast; [10] | Fibroblast; [1] | Fibroblast; [3] | Fibroblast; [5] | Fibroblast; [6] | HEK-293T; [8]
1: U2OS; [2] | U2OS; [4] | U2OS; [7] | Fibroblast; [4] | HEK-293T; [10] | HEK-293T; [2] | HEK-293T; [4] | HEK-293T; [7]

COC(=O)/C=C/c1cccc(N(Cc2ccc(-c3ccc(N(C)C)cc3)cc2)C(=O)C2CCCCC2)c1 [FEXARAMINE]
1: U2OS; [3] | U2OS; [5] | Fibroblast; [3] | Fibroblast; [5] | Fibroblast; [6] | HEK-293T; [1]
0: U2OS; [10] | U2OS; [2] | U2OS; [4] | U2OS; [9] | U2OS; [6] | Fibroblast; [8] | Fibroblast; [1] | Fibroblast; [4] | Fibroblast; [9] | Fibroblast; [7] | HEK-293T; [8] | HEK-293T; [2] | HEK-293T; [3] | HEK-293T; [5] | HEK-293T; [6]

Cn1c(CNc2cccc(C(=O)NCc3ccccc3C(F)(F)F)c2)nnc1-c1ccncc1
1: U2OS; [4] | Fibroblast; [8] | HEK-293T; [7]
0: U2OS; [10] | U2OS; [1] | U2OS; [3] | U2OS; [5] | U2OS; [6] | Fibroblast; [10] | Fibroblast; [1] | Fibroblast; [3] | Fibroblast; [5] | Fibroblast; [6] | HEK-293T; [8]
